From patent publication US8551978B2 (Theravance, Inc., priority 2009, dated 2013)
Where a name gives a salt, the structure may show the parent alone. Read-outs that look alike come from different tables or passages of the source.

Columns and labels:
[1] = target: hM3 muscarinic receptor (Homo sapiens (Human), UniProt P20309); experiment: Radioligand binding assay for muscarinic receptors ([3H]-NMS displacement, CHO cell membranes)
Experimental: The cells were grown in a 5% CO2, 37° C. incubator and lifted with 2 mM EDTA in dPBS. Cells were collected by 5 minute centrifugation at 650×g, and cell pellets were either stored frozen at −80° C. or membranes were prepared immediately for use. For membrane preparation, cell pellets were resuspended in lysis buffer and homogenized with a Polytron PT-2100 tissue disrupter (Kinematica AG; 20 seconds×2 bursts). Crude membranes were centrifuged at 40,000×g for 15 minutes at 4° C. The membrane pellet was then resuspended with re-suspension buffer and homogenized again with the Polytron tissue disrupter. The protein concentration of the membrane suspension was determined by the method described in Lowry et al., 1951, […], 193, 265. All membranes were stored frozen in aliquots at −80° C. or used immediately. […] The membranes were briefly homogenized using a Polytron tissue disruptor (10 seconds) prior to assay plate addition. […] The test compounds were initially dissolved to a concentration of 400 μM in dilution buffer and then serially diluted 5× with dilution buffer to final concentrations ranging from 10 μM to […]. The order of addition and volumes added to the assay plates were as follows: 25 μL radioligand, 25 μL diluted test compound, and 50 μL membranes. Assay plates were incubated for 6 hours at 37° C. […] Filter plates were rinsed three times with wash buffer (10 mM HEPES) to remove unbound radioactivity. The plates were then air-dried and 50 μL Microscint-20 liquid scintillation fluid (PerkinElmer, Inc.) were added to each well. The plates were then counted in a PerkinElmer Topcount liquid scintillation counter (PerkinElmer, Inc.). Binding data were analyzed by nonlinear regression analysis with the GraphPad Prism Software package (GraphPad Software, Inc., San Diego, Calif.) using the one-site competition model. […] These summary statistics were then converted back to K; values for data reporting.

[2] = target: hβ2 adrenergic receptor (Homo sapiens (Human), UniProt P07550); experiment: Assay for determining adrenergic receptor agonist potency (cAMP Flashplate, HEK-293 cells); assay type: cell-based; details: data rounded to nearest 1 nM
Experimental: The cell monolayer was lifted with 2 mM EDTA in PBS. Cells were pelleted by centrifugation at 1,000 rpm, and cell pellets were either stored frozen at −80° C. or membranes were prepared immediately for use. cAMP assays were performed in a radioimmunoassay format using the Flashplate Adenylyl Cyclase Activation Assay System with [^125I]-cAMP (NEN SMP004, PerkinElmer Life Sciences Inc., Boston, Mass.), according to the manufacturers instructions. […] Cells were rinsed with PBS and detached in dPBS (Dulbecco's Phosphate Buffered Saline, without CaCl2 and MgCl2) containing 2 mM EDTA or Trypsin-EDTA solution (0.05% trypsin/0.53 mM EDTA). After counting cells in Coulter cell counter, cells were pelleted by centrifugation at 1,000 rpm and re-suspended in stimulation buffer containing TBMX (PerkinElmer Kit) pre-warmed to room temperature to a concentration of 1.6×10^6 to 2.8×10^6 cells/mL. About 40,000 to 80,000 cells per well were used in this assay. […] Reactions were incubated for 10 min at 37° C. and stopped by adding 100 μL of cold detection buffer containing [^125I]-cAMP (NEN SMP004, PerkinElmer Life Sciences, Boston, Mass.). […] Data were analyzed by nonlinear regression analysis with the GraphPad Prism Software package (GraphPad Software, Inc., San Diego, Calif.) with the sigmoidal equation. The Cheng-Prusoff equation (Cheng Y, and Prusoff W H., Biochemical Pharmacology, 1973, 22, 23, 3099-108) was used to calculate the EC50 values.

[3] = tested on: MCh-induced bronchoconstriction; experiment: Einthoven assay: bronchoprotection against methacholine (MCh)-induced bronchoconstriction; assay type: in vivo, rat; details: rat, 100 μg by inhalation, 24 h after administration
Experimental: This assay measures the ability of a test compound to provide bronchoprotection against methacholine (MCh)-induced bronchoconstriction in a rat. Male Sprague-Dawley rats (Harlan, Indianapolis, Ind.), weighing between 200 g and 350 g, were used for all studies. Test compound or vehicle (sterile deionized water) were dosed by inhalation (1H) over a 10 min period in a pie shaped inhalation chamber (R+S Molds, San Carlos, Calif.) using 5 mL of dosing solution. […] Rats were dosed with 100 μg of test compound unless otherwise indicated. At predetermined time points, rats were anesthetized with an intraperitoneal (IP) injection of 120 mg/kg inactin (thiobutabarbital). A supplemental dose (40 mg/kg, IP) was administered if the animal responded to physical stimuli (e.g. toe pinch). The surgical site was shaved and a 1-2 cm midline incision of the ventral aspect of the neck was made. The jugular vein was isolated and cannulated with a saline-filled polyethylene catheter (PE-50) to allow IV infusion of MCh. Trachea was dissected free and cannulated with a 14G needle (#NE-014, Small Parts, Miami Lakes, Fla.). After placement of the tracheal cannula, each rat was ventilated using a respirator (Model 683, Harvard Apparatus, Inc., MA) set at a stroke volume of 1 mL/100 g body weight (but not exceeding 2.5 mL volume) and a rate of 90 strokes per minute. A T-connector was placed along the respirator expiratory tubing to allow for measurement of changes in ventilation pressure (VP) using a Biopac transducer that was connected to a Biopac […]) pre-amplifier. Body temperature was maintained at 37° C. using a heating pad. Changes in VP were recorded using the Acknowledge Data Collection Software (Santa Barbara, Calif.). Baseline values were collected for at least 2.5 min. Rats were then challenged with non-cumulative intravenous (IV) infusions of 40 and 80 μg/kg MCh. MCh was infused intravenously for 2.5 minutes from a syringe pump (sp210iw, World Precision Instruments, Inc., Sarasota, Fla.) at a rate of 2 mL/kg/min, with a 2 minute interval between the two doses of MCh. Changes in ventilation pressure (cm H2O) in treated animals are expressed as % inhibition of MCh response relative to control animals. Other bronchoconstrictors, such as histamine and acetylcholine, can be used in place of MCh in this assay. Additionally, guinea pigs can be used instead of rats. […] Inhibition greater than or equal to 30 percent at 24 h is indicative of a long duration of action.

[4] = hM3 Muscarinic Receptor Binding, data rounded to nearest 0.1 nM

hM3 muscarinic receptor, sequence (P20309 whole entry): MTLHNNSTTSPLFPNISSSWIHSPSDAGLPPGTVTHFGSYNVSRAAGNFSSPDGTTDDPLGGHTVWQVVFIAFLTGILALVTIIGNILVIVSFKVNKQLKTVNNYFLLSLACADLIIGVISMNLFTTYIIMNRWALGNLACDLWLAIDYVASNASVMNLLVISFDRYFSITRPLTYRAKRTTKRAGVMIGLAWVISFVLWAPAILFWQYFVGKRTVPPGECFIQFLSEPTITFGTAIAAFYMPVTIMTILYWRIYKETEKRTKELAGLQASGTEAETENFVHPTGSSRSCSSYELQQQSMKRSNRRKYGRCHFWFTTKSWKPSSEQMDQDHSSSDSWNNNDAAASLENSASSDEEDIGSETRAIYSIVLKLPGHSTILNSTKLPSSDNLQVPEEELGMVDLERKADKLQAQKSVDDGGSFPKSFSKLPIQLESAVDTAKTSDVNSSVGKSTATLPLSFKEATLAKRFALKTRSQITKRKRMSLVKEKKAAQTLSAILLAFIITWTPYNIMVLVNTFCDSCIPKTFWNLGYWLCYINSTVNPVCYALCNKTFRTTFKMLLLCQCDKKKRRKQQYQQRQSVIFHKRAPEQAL
hβ2 adrenergic receptor, sequence (P07550 whole entry): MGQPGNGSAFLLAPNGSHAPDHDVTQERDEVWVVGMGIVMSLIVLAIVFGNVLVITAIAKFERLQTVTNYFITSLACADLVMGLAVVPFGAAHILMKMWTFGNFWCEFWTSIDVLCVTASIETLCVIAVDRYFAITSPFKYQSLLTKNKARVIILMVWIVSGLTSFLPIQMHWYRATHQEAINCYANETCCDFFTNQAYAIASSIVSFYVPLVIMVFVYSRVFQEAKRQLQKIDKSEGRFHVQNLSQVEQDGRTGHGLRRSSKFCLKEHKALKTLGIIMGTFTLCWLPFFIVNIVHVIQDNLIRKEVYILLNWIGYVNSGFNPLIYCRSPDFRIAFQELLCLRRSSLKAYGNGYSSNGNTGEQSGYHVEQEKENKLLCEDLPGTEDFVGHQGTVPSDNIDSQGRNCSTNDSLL

SMILES	Ki [1, 4] [nM]	EC50 [2] [nM]	Broncho. at 24 h [3]	Ki [1] [nM]
COc1ccc(CNC(=O)Cc2ccc(N(C)C(=O)CCN3CCC(OC(=O)Nc4ccccc4-c4ccccc4)CC3)cc2)cc1CC(C)NC[C@H](O)c1ccc(O)c2[nH]c(=O)ccc12 (stereo partly drawn) [Compound I-72]	0.4	4		
C[C@@H](Cc1cccc(CCNC(=O)Cc2ccc(N(C)C(=O)CCN3CCC(OC(=O)Nc4ccccc4-c4ccccc4)CC3)cc2)c1)NC[C@H](O)c1ccc(O)c2[nH]c(=O)ccc12 [Compound I-87]			Yes (Bronchoprotective effect present at 24 h, e.g., ≧30% inhibition of the MCh response at 24 h in the rat Einthoven assay (100 μg))	
COc1ccc(NC(=O)CCCN(C)C(=O)CCN2CCC(OC(=O)Nc3ccccc3-c3ccccc3)CC2)cc1CCNC[C@H](O)c1ccc(O)c2[nH]c(=O)ccc12 [Compound I-9]		6		0.1
C[C@H](Cc1ccc(NC(=O)c2cccc(N(C)C(=O)CCN3CCC(OC(=O)Nc4ccccc4-c4ccccc4)CC3)c2)cc1)NC[C@H](O)c1ccc(O)c2[nH]c(=O)ccc12 [Compound I-42]			No	
Cc1ccc(C(=O)Nc2ccc(CCNC[C@H](O)c3ccc(O)c4[nH]c(=O)ccc34)cc2)cc1N(C)C(=O)CCN1CCC(OC(=O)Nc2ccccc2-c2ccccc2)CC1 [Compound I-35]			Yes (Bronchoprotective effect present at 24 h, e.g., ≧30% inhibition of the MCh response at 24 h in the rat Einthoven assay (100 μg))	
C[C@H](Cc1ccc(CCNC(=O)c2ccc(N(C)C(=O)CCN3CCC(OC(=O)Nc4ccccc4-c4ccccc4)CC3)cc2)cc1)NC[C@H](O)c1ccc(O)c2[nH]c(=O)ccc12 [Compound I-57]		1		0.1
Cc1c(CNC(=O)Cc2ccc(N(C)C(=O)CCN3CCC(OC(=O)Nc4ccccc4-c4ccccc4)CC3)cc2)cccc1CC(C)NC[C@H](O)c1ccc(O)c2[nH]c(=O)ccc12 (stereo partly drawn) [Compound I-71]		1		0.1
CN(C(=O)CCN1CCC(OC(=O)Nc2ccccc2-c2ccccc2)CC1)c1ccc(CNC(=O)CCc2cccc(CNC[C@H](O)c3ccc(O)c4[nH]c(=O)ccc34)c2)cc1 [Compound I-96]		3		
CN(C(=O)CCN1CCC(OC(=O)Nc2ccccc2-c2ccccc2)CC1)c1cccc(C(=O)Nc2ccc(CNC[C@H](O)c3ccc(O)c4[nH]c(=O)ccc34)cc2)c1 [Compound I-25, Ditrifluoroacetic Acid]		1		0.1
CN(C(=O)CCN1CCC(OC(=O)Nc2ccccc2-c2ccccc2)CC1)c1ccc(CNC(=O)Cc2cccc(CNC[C@H](O)c3ccc(O)c4[nH]c(=O)ccc34)c2)cc1 [Compound I-74]	0.3	2		
CN(C(=O)CCN1CCC(OC(=O)Nc2ccccc2-c2ccccc2)CC1)c1ccc(CNC(=O)Cc2ccc(CNC[C@H](O)c3ccc(O)c4[nH]c(=O)ccc34)cc2)cc1 [Compound I-75]		2		0.2
C[C@@H](Cc1ccc(CCNC(=O)c2ccc(N(C)C(=O)CCN3CCC(OC(=O)Nc4ccccc4-c4ccccc4)CC3)cc2)cc1)NC[C@H](O)c1ccc(O)c2[nH]c(=O)ccc12 [Compound I-58]		1		0.2
Cc1ccc(CNC(=O)Cc2ccc(N(C)C(=O)CCN3CCC(OC(=O)Nc4ccccc4-c4ccccc4)CC3)cc2)cc1CC(C)NC[C@H](O)c1ccc(O)c2[nH]c(=O)ccc12 (stereo partly drawn) [Compound I-70]	0.3	1		
C[C@H](Cc1ccc(CCNC(=O)Cc2ccc(N(C)C(=O)CCN3CCC(OC(=O)Nc4ccccc4-c4ccccc4)CC3)cc2)cc1)NC[C@H](O)c1ccc(O)c2[nH]c(=O)ccc12 [Compound I-90]		1		0.1
CC(Cc1cc(CC(=O)NCc2ccc(N(C)C(=O)CCN3CCC(OC(=O)Nc4ccccc4-c4ccccc4)CC3)cc2)ccc1F)NC[C@H](O)c1ccc(O)c2[nH]c(=O)ccc12 (stereo partly drawn) [Compound I-84]	0.1	1		
CN(C(=O)CCN1CCC(OC(=O)Nc2ccccc2-c2ccccc2)CC1)c1ccc(CNC(=O)Cc2cccc(CCNC[C@H](O)c3ccc(O)c4[nH]c(=O)ccc34)c2)cc1 [Compound I-76]	0.3	1		
CN(C(=O)CCN1CCC(OC(=O)Nc2ccccc2-c2ccccc2)CC1)c1cccc(CC(=O)Nc2ccc(CNC[C@H](O)c3ccc(O)c4[nH]c(=O)ccc34)cc2)c1 [Compound I-59]		3		0.1
Cc1ccc(C(=O)NCc2ccc(CC(C)NC[C@H](O)c3ccc(O)c4[nH]c(=O)ccc34)cc2)cc1N(C)C(=O)CCN1CCC(OC(=O)Nc2ccccc2-c2ccccc2)CC1 (stereo partly drawn) [Compound I-47]	0.2	3		
CN(CCCC(=O)Nc1ccc(CNC[C@H](O)c2ccc(O)c3[nH]c(=O)ccc23)cc1)C(=O)CCN1CCC(OC(=O)Nc2ccccc2-c2ccccc2)CC1 [Compound I-1, Biphenyl-2-ylcarbamic Acid 1-(2-{[3-(4-{[(R)-2-Hydroxy-2-(8-hydroxy-2-oxo-1,2-dihydroquinolin-5-yl)ethylamino]methyl}-phenylcarbamoyl)propyl]methylcarbamoyl}ethyl)piperidin-4-yl Ester Ditrifluoroacetic Acid Salt]	0.1	3		
C[C@@H](Cc1cccc(CCC(=O)NCc2ccc(N(C)C(=O)CCN3CCC(OC(=O)Nc4ccccc4-c4ccccc4)CC3)cc2)c1)NC[C@H](O)c1ccc(O)c2[nH]c(=O)ccc12 [Compound I-93]		11		0.8
Cc1cc(NC(=O)Cc2cccc(N(C)C(=O)CCN3CCC(OC(=O)Nc4ccccc4-c4ccccc4)CC3)c2)c(C)cc1CNC[C@H](O)c1ccc(O)c2[nH]c(=O)ccc12 [Compound I-60]		3		0.1
COc1ccc(CC(=O)Nc2cccc(N(C)C(=O)CCN3CCC(OC(=O)Nc4ccccc4-c4ccccc4)CC3)c2)cc1CC(C)NC[C@H](O)c1ccc(O)c2[nH]c(=O)ccc12 (stereo partly drawn) [Compound I-54]	0.2	2		
CN(C(=O)CCN1CCC(OC(=O)Nc2ccccc2-c2ccccc2)CC1)c1cccc(CC(=O)Nc2ccc(CCNC[C@H](O)c3ccc(O)c4[nH]c(=O)ccc34)cc2)c1 [Compound I-63]		1		0.1
